Experimental data taken from patent US20040132642A1, “Methods of inhibiting metastasis or growth of a tumor cell” (Government of the U.S.A., represented by the Secretary, …, priority 2002, published 2004).

Columns and labels:
[1] = system: CXCR4-B16 cells; experiment: arrest of CXCR4-B16 cells on VCAM-1/Ig-coated plates under flow; format: cell-based, murine; conditions: CXCR4-B16 on plates co-coated with VCAM-1/Ig and 1 μg/ml chemokine; 1.5 dynes/cm^2
Experimental: Cell suspension plates (35 mm, Model # 430588, Corning Inc., NY) were coated with human VCAM-1/IgG chimera (1 μg/ml) overnight at 4° C. in Tris-buffered saline (Maki et al., Immunol. 169:2346-2353 (2002)). Plates were then briefly rinsed with PBS, co-coated with 1 μg/ml of CXCL12, CCL19, or no chemokine in PBS for 2 hr at 4° C., and blocked with 1% BSA/PBS for 1 hr at 4° C. Calcein-acetomethyl (AM)-labeled (Molecular Probes, Eugene, Oreg.) CXCR4-B16 or pLNCX2-B16 cells (2.5×10^5 cells/ml in cDMEM) were injected at 1.5 dynes/cm^2 into a parallel plate flow chamber (Glycotech, Gaithersburg, Md.) that had been placed over the adhesion molecule- and/or chemokine-coated suspension plate.
For dynamic assays on recombinant molecule-coated plates as well as on LMEC, tumor cells were introduced into the chamber under a constant shear stress of 1.5 dynes/cm^2 without allowing cells to settle at any time during the assay. Ten min after flow was initiated, arrested cells were digitally photographed (without flow being decreased) in 4-6 random fields (each field=1.18 mm^2) with excitation at 488 nm and emission at 513 nm using sufficient exposure time (˜1 s) to allow distinction between moving cells, which appeared as dim streaks, and stationary cells. Cells were then enumerated with the software program IPlab (Scanalytics, Fairfax, Va.). […]

[2] = system: CXCR4-B16 cells; experiment: adhesion of CXCR4-B16 cells to resting DMEC in parallel plate flow chamber; format: cell-based, murine; conditions: DMEC exposed to 100 ng/ml chemokine for 15 min; 1.5 dynes/cm^2
Experimental: Prior to interaction with tumor cells, resting confluent DMEC or LMEC were exposed to 100 ng/ml of recombinant CXCL12 or CCL21 for 15 min at 20° C. as described (Cinamon et al., Nat. Immunol. 2: 515-22 (2001)). After unbound chemokine was washed away, calcein-AM-labeled (Molecular Probes, Eugene, Oreg.) CXCR4- or pLNCX2-B16 cells (2.5×10^5/ml in B16 medium) were injected at 1.5 dynes/cm^2 into a parallel plate flow chamber (Glycotech, Gaithersburg, Md.) containing confluent DMEC or LMEC. In some cases, tumor cells were treated with pertussis toxin (PTX, Calbiochem, San Diego, Calif.) at 100 ng/ml for 2 hours at 37° C. to block Gi-protein-coupled signaling. After two min, flow was stopped, which enabled B16 cells to interact with MEC in the absence of shear stress. After 5 min, shear was re-established at 1.5 dynes/cm^2 for up to 2 min in order to detach unbound cells; adherent cells were digitally photographed in 5-6 random fields (each field=1.18 mm^2) with excitation at 488 nm and emission at 513 nm using sufficient exposure time (˜1 s) to allow distinction between non-moving and moving cells (which appeared as dim streaks) (Fitzhugh et al. (2000), supra). Cells were then counted with the software program IPlab (Scanalytics, Fairfax, Va.). […]

[3] = system: pLNCX2-B16 cells; experiment: growth of pLNCX2-B16 cells under low serum conditions in vitro; format: cell-based, murine; conditions: for cell count pLNCX2-B16 24 h / cell count pLNCX2-B16 48 h: low serum (0.5% FCS); for effect on growth of pLNCX2-B16 cells: under either low or high serum conditions
Experimental: (§1) CXCR4- and pLNCX2-B16 cells (2×10^4 cells/well) were cultured in triplicate for 24 hr in 24-well plates containing B16 growth medium (DMEM, 10% FCS). After rinsing the cells in serum-free DMEM, the B16 cells were incubated for 40 hr at 37° C. in DMEM containing low serum (0.5% FCS). At this point, CXCL12 (500 ng/ml) was added to the cells by itself or with either T22 or control ALA peptide at 1 μg/ml for the indicated times. Cells were then harvested at 24 or 48 hr later and counted by a hemacytometer.

[4] = system: activated bone-marrow-derived dendritic cells; experiment: in vitro chemotaxis of dendritic cells to CXCL12; format: cell-based; conditions: T22 500 ng/ml; 200 ng/ml of CXCL12
[5] = system: CXCR4-B16 cells; experiment: growth of CXCR4-B16 cells under low serum conditions in vitro; format: cell-based, murine; conditions: for effect of peptide alone on growth: T22 or ALA alone; for cell count CXCR4-B16 24 h / cell count CXCR4-B16 48 h: low serum (0.5% FCS); for block of growth stimulated by CXCL12: low serum, in the presence of CXCL12
Experimental: as §1

[6] = system: CXCR4-B16 cells; experiment: pulmonary metastasis after i.v. injection of CXCR4-B16 cells (lung luciferase assay); format: in vivo, mice; conditions: for effect on pulmonary metastasis: CXCR4-B16-injected mice; for effect on pulmonary metastasis / Average weight: 4 μg peptide i.p. daily; for Luciferase activity (RLU): lung, 4 μg peptide/mouse i.p. daily; for Luciferase activity (RLU) / Average weight: CXCR4-B16 cells i.v.; for Average weight: mass of the lungs; for Average Relative Luciferase Units: CXCR4-B16 i.v., 14-day assay
Experimental: (§2) Luciferase activity was measured using a Luciferase Reporter assay system (Promega, Madison, Wis.). Cultured cells were lysed with 100 μl of undiluted lysis buffer and then assayed in the presence of luciferin using a Thermo Labsystems MLX 96-well luminometer (Helsinki, Finland). Units are in arbitrary light units. For tissue assays, organs from each animal were homogenized in 1 ml of lysis buffer, of which 25 μl aliquots were then assayed in duplicate. Means of duplicates were used to represent the luciferase activity for a given tissue from a particular animal. Five to ten animals per experimental treatment group were used for typical experiments.
(§3) CXCR4- and pLNCX2-B16 cells in exponential growth phase were harvested by trypsinization and washed twice in PBS prior to injection. Cell viability was >95% as determined by trypan blue dye exclusion. For the footpad (i.e., subcutaneous) injection, B16 cells (4×10^5 cells in 20 μl PBS) were subcutaneously injected into the left footpads of C57BL/6 mice. Tumor growth was monitored three times per week by measurement of two maximum perpendicular tumor diameters. When tumors reached 5-7 mm in size, animals were euthanized prior to harvesting of lung and LN. Popliteal LN were removed by gently pulling skin (including the dermis and subcutaneous fat) above the popliteal fossa and carefully exposing the LN resting in the adipose tissue of the fossa with a pair of forceps. For intravenous injection, 4×10^5 CXCR4- or pLNCX2-B16 cells in 200 μl were injected into the tail veins of mice. T22 and ALA peptides in sterile PBS were administered via an intraperitoneal (i.p.) route using 4 μg peptide/mouse daily for the indicated duration of treatment. Experiments were performed 2-4 times each with similar trends.
To determine whether T22 would inhibit the CXCR4-mediated increase in metastasis, mice were injected intravenously with CXCR4-B16 and pLNCX2-B16 cells. Subgroups of CXCR4-B16 mice were treated daily with 4 μg of either T22 or ALA control peptide. CXCR4-B16 cells accumulated in greater numbers in the lung compared to pLNCX2-B16 cells (Table 4), confirming the results described in Example 2.
It has been shown that the CXCR4 inhibitory peptide, T22, blocked pulmonary metastasis of CXCR4-B16 cells when this CXCR4 inhibitor was used daily throughout the course of the 14-day metastastis assay (Murakami et al., Cancer Res. 62:7328-7334 (2002)). To determine if short-term treatment with T22 was also effective in blocking metastasis, the in vivo assay described in Murakami et al., Cancer Res. 62:7328-7334 (2002), was modified and the drug was only given for the first two days of the 14-day waiting period following i.v. injection of CXCR4-B16 and pLNCX2-B16 cells. In one group of animals, the CXCR4 antagonist peptide T22 was administered intraperitoneally (i.p.) shortly after tumor inoculation and again 24 hours later. In another group of CXCR4-B16-injected mice, T22 was given daily for 14 days.
To determine whether T22 treatment during the last 7 days of the metastasis assay could reduce tumor burden, T22 was given daily either during the entire 2-week treatment period or for just the second week (Table 9).
CXCR4-B16 and pLNCX2-B16 cells in exponential growth phase were harvested by trypsinization and washed twice in PBS before injection. Cell viability was >95% as determined by trypan blue dye exclusion. CXCR4-B16 or pLNCX2-B16 cells (4×10^5 in 200 μl PBS) were then injected into the tail veins of mice. T22 and ALA peptides in sterile PBS were administered via an i.p. route using 4 μg peptide/mouse daily for the indicated duration of treatment as described (Murakami et al., Cancer Res. 62:7328-7334 (2002)). Mice were euthanized after 14 days for gross inspection of lungs and luciferase quantification of metastasis by luciferase activity (Murakami et al., Cancer Res. 62:7328-7334 (2002)). […]

[7] = system: pLNCX2-B16 cells; experiment: pulmonary metastasis after i.v. injection of pLNCX2-B16 cells (lung luciferase assay); format: in vivo; conditions: pLNCX2-B16-injected mice
Experimental: as §2
CXCR4- and pLNCX2-B16 cells in exponential growth phase were harvested by trypsinization and washed twice in PBS prior to injection. Cell viability was >95% as determined by trypan blue dye exclusion. […] Tumor growth was monitored three times per week by measurement of two maximum perpendicular tumor diameters. […]
CXCR4-B16 and pLNCX2-B16 cells in exponential growth phase were harvested by trypsinization and washed twice in PBS before injection. Cell viability was >95% as determined by trypan blue dye exclusion. […] Mice were euthanized after 14 days for gross inspection of lungs and luciferase quantification of metastasis by luciferase activity (Murakami et al., Cancer Res. 62:7328-7334 (2002)). […]

[8] = system: CXCR4-B16 cells; experiment: growth of CXCR4-B16 cells injected into the footpad; format: in vivo, mice; conditions: compared to either PBS or ALA
Experimental: as §3

[9] = peptide 1 μg/ml together with SDF-1 (CXCL12 500 ng/ml)
[10] = treatment alone, CXCL12 500 ng/ml, peptide 1 μg/ml

Substance	cell count pLNCX2-B16 24 h [3, 9]	cell count pLNCX2-B16 48 h [3, 9]	cell count pLNCX2-B16 24 h [3, 10]	cell count pLNCX2-B16 48 h [3, 10]	effect on growth of pLNCX2-B16 cells [3]	block of in vitro chemotaxis to CXCL12 [4]	effect of peptide alone on growth [5]	cell count CXCR4-B16 24 h [5, 9]	cell count CXCR4-B16 48 h [5, 9]	cell count CXCR4-B16 24 h [5, 10]	cell count CXCR4-B16 48 h [5, 10]	block of growth stimulated by CXCL12 [5]	effect on pulmonary metastasis [6]	Luciferase activity (RLU) [6]	Average weight [6]	further results
CCL19: an unrelated chemokine used as control																Mean adherent cells/field [1]: 17.2 cells/field; adherent B16-CXCR4 cells on DMEC (Table 6) [2]: 6.8
H-KWAFRVAYRGIAYRRAR-OH [ALA, reference compound]	10.7 ± 2.9	22.7 ± 3.2	10.0 ± 1.0	20.3 ± 3.5	did not affect the growth	no inhibitory effect	did not significantly alter growth	16.0 ± 1.0	33.3 ± 6.7	12.0 ± 0.1	22.3 ± 1.2	but not by the control peptide	no effect	43928 ± 29729 RLU	0.88 g	
NH2-RRWCYRKCYKGYCYRKCR-COOH (H-RRWCYRKCYKGYCYRKCR-OH; cysteine pairing not given here) [T22]	12.3 ± 0.6	21.7 ± 3.2	10.7 ± 1.2	21.0 ± 1.0	did not affect the growth	block specifically	did not significantly alter growth	12.7 ± 2.1	20.7 ± 3.0	11.0 ± 1.0	22.0 ± 1.0	could be blocked	reduced metastasis to levels seen in pLNCX2-B16 injected mice	1114 ± 956 RLU	0.55 g	effect on metastasis [7]: did not block metastasis; effect on growth of cells injected into the footpad [8]: no significant effect on the growth; Average Relative Luciferase Units ([6]; T22 daily 2nd week only): 81981.2 Relative Luciferase Units; Average Relative Luciferase Units ([6]; T22 daily for 2 weeks): 15294.5 Relative Luciferase Units; protection against CXCR4-mediated pulmonary metastasis ([6]; T22 i.p. for the first two days of the 14-day assay): as effective as giving T22 daily for the entire 2-week course; metastatic burden ([6]; T22 treatment during the second week only): same metastatic burden as PBS (mock) treatment
